# Measured values reported in PubChem BioAssay (NCI).
#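 How tested: cells in 96-well plates exposed to compound for 48 hours at five concentrations. TGI denotes the concentration required for complete inhibition of growth.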
# Legend:
# Assay in all cases: NCI tumour cell line growth inhibition, 48 h
# [1] = test system: MDA-N
# [2] = test system: COLO 205 colon
# [3] = test system: TK-10 renal
# [4] = test system: HOP-62 NSCLC
# [5] = test system: PC-3 prostate
# [6] = test system: HCT-15 colon
# [7] = test system: SF-539 CNS
# [8] = test system: SW-620 colon
# [9] = test system: EKVX NSCLC
# [10] = test system: NCI-H226 lung
# [11] = test system: LOX IMVI melanoma
# [12] = test system: HS 578T breast
# [13] = test system: NCI/ADR-RES ovarian
# [14] = test system: SNB-19 CNS
# [15] = test system: NCI-H460 lung
# [16] = test system: MOLT-4 leukemia
# [17] = test system: KM12 colon
# [18] = test system: A549 NSCLC
# [19] = test system: SK-MEL-28 melanoma
# [20] = test system: NCI-H23 lung
Structure (SMILES),TGI [1] [µM],TGI [2] [µM],TGI [3] [µM],TGI [4] [µM],TGI [5] [µM],TGI [6] [µM],TGI [7] [µM],TGI [8] [µM],TGI [9] [µM],TGI [10] [µM],TGI [11] [µM],TGI [12] [µM],TGI [13] [µM],TGI [14] [µM],TGI [15] [µM],TGI [16] [µM],TGI [17] [µM],TGI [18] [µM],TGI [19] [µM],TGI [20] [µM]
N#CCCN(CCC#N)c1ccc(/C=C2\N=C(c3ccccc3)N(NC(=O)c3ccncc3)C2=O)cc1,> 100,> 100,> 100,> 100,> 100,> 100,> 100,> 100,> 100,> 100,> 100,> 100,> 100,> 100,> 100,> 100,> 100,> 100,> 100,
Cc1ccc(NC(=O)c2cc(S(=O)(=O)N3CCNNC3=O)c(S)cc2Cl)cc1,> 100,> 100,> 100,,> 100,> 100,> 100,> 100,> 100,> 100,> 100,> 100,> 100,> 100,> 100,> 100,> 100,> 100,> 100,
COc1ccc(N=C/C=C/C(=C/COC(C)=O)OC(C)=O)cc1,43.8,73.5,> 100,> 100,> 100,> 100,> 100,32.6,> 100,> 100,> 100,> 100,> 100,> 100,98.6,> 100,> 100,> 100,65.9,91.7
CSC(=S)Nc1cc(C)ccn1,> 100,> 100,> 100,> 100,> 100,> 100,> 100,> 100,> 100,> 100,> 100,> 100,> 100,> 100,> 100,> 100,> 100,> 100,> 100,> 100
COc1ccc2[nH]c3c(c2c1)CCc1ccccc1-3,> 100,> 100,> 100,> 100,> 100,> 100,32.1,> 100,> 100,> 100,> 100,37.4,> 100,> 100,> 100,> 100,> 100,> 100,> 100,> 100
C[N+](C)(C)C(Cc1c[nH]c(=S)[nH]1)C(=O)O (stereo unspecified),> 100,> 100,> 100,> 100,> 100,> 100,> 100,> 100,> 100,> 100,> 100,> 100,> 100,> 100,> 100,> 100,> 100,> 100,> 100,> 100
Nc1nc(Cl)cc(NCC2(CO)CC(O)C2)n1 (stereo unspecified),> 100,> 100,> 100,> 100,> 100,> 100,> 100,> 100,> 100,> 100,> 100,> 100,> 100,> 100,> 100,> 100,> 100,> 100,> 100,> 100
O=C(CN1c2ccccc2Sc2ccccc21)n1cnc2ccccc21,> 100,> 100,> 100,> 100,> 100,> 100,> 100,> 100,> 100,> 100,> 100,> 100,> 100,> 100,> 100,> 100,> 100,> 100,> 100,> 100
CCOC(=O)c1cc(NC(=O)c2ccccc2)c(=O)n2c(cc3c(Cl)cccc32)c1O,> 100,> 100,> 100,> 100,> 100,> 100,> 100,> 100,> 100,> 100,> 100,> 100,> 100,> 100,> 100,> 100,> 100,> 100,> 100,> 100
O=C(CCl)Nc1ccc(-c2nc3ccccc3s2)cc1,7.89,3.82,22.6,12.3,6.71,6.65,8.16,5.07,17.1,5.11,2.31,20.1,> 56.2,9.99,7.46,12.8,11,21.8,9.66,10.2
ClCc1nc2cc(Cl)ccc2o1,21.4,9,7.9,8.28,19.6,16.7,17.8,> 67.2,8.89,42.9,6.74,> 61.5,98.4,21.5,31.6,> 100,28.6,42.2,20.7,24.6
CCCN=C1S/C(=C/c2ccc(OC)c(OC)c2)C(=O)N1c1ccccc1,> 100,> 100,55.2,15.2,> 100,> 100,30.2,> 100,> 100,95,> 100,> 100,> 100,63.4,> 100,> 100,> 100,> 100,> 100,> 100
c1ncc(C23C4C5C6C4C2C6C53)[nH]1 (stereo unspecified),> 100,> 100,> 100,> 100,> 100,> 100,> 100,> 100,> 100,> 100,> 100,> 100,> 100,> 100,> 100,> 100,> 100,> 100,> 100,> 100
COC(=O)/C=C1/OC(c2ccccc2)=CC1=O,34.1,29.5,37.2,44.7,40.2,30.1,39.8,32.3,> 62.2,67.3,30,65.9,58.7,32,43.5,17.3,32.4,> 82.9,> 58,42.9
NC(=S)NS(=O)(=O)c1ccc(F)cc1,> 100,> 100,> 100,> 100,> 100,> 100,> 100,> 100,> 100,> 100,> 100,> 100,> 100,> 100,> 100,> 100,> 100,> 100,> 100,> 100
NC(N)=NCCCS(=O)(=O)Nc1ccc(Nc2c3ccccc3nc3cc([N+](=O)[O-])ccc23)cc1,81.1,56.2,> 84.5,39.3,67.9,> 100,52.1,58,70.7,45.5,> 75.7,50.9,58.8,28.8,33,43.6,51.4,36.6,40.7,35.6
CCOP(=O)(OCC)OC1CC(n2cnc3c(N(CC)CC)ncnc32)OC1CO[Si](C)(C)C(C)(C)C (stereo unspecified),32,32.8,33,34,28.5,45,33.8,35.2,20.5,39.3,33.4,77.1,51.8,33.7,32,30.7,38.6,29.8,36.3,37.2
O=C1C2=Cc3ccccc3CCN2c2ccc([N+](=O)[O-])cc21,> 100,> 100,> 100,> 100,> 100,> 100,> 100,> 100,> 100,> 100,> 100,> 100,> 100,> 100,> 100,> 100,> 100,> 100,> 100,> 100
CCCCC[C@H]1CC=CC(=O)O1,23,15.1,40.4,45.3,69.3,20.9,4.82,18.7,56.7,23.9,18.1,50.6,27.1,28.2,21.2,18.8,13.9,60.5,20.5,> 100
COc1cc([C@@H]2c3cc4c(cc3[C@@H](N=Cc3ccc(C(=O)O[C@H]5C[C@H]6OC[C@@]6(OC(C)=O)[C@H]6[C@H](OC(=O)c7ccccc7)[C@]7(O)C[C@H](OC(=O)[C@H](OC(=O)c8ccc(C=N[C@@H]9c%10cc%11c(cc%10[C@@H](c%10cc(OC)c(O)c(OC)c%10)[C@H]%10C(=O)OC[C@@H]%109)OCO%11)cc8)[C@@H](NC(=O)c8ccccc8)c8ccccc8)C(C)=C([C@@H](OC(C)=O)C(=O)[C@]56C)C7(C)C)cc3)C3COC(=O)C32)OCO4)cc(C)c1O (stereo partly specified),7.71,> 50,> 50,> 50,> 27.5,> 50,> 37.8,> 50,> 35.2,> 50,> 50,> 50,> 50,> 50,> 50,> 50,> 50,> 50,> 50,> 50
C=CCSC1=N/C(=C\c2ccco2)C(=O)N1CC=C,> 100,> 100,> 100,> 100,> 100,> 100,> 100,> 100,> 100,> 100,> 100,> 100,> 100,> 100,> 100,> 100,> 100,> 100,> 100,> 100
COC(=O)/C=C(\S/C(=C(/c1ccccc1)n1cc(C(=O)OC)c(C(=O)OC)n1)c1ccccc1)C(=O)OC,37.9,4.09,9.22,31,32.2,29,32.4,16.9,32.1,> 100,21.4,96.3,89.1,40,> 100,12.4,> 100,62.6,60.4,38
CN(N=O)C(N)=NC(=O)c1ccccc1,> 100,> 100,> 100,> 100,> 100,> 100,> 100,> 100,> 100,> 100,> 100,> 100,> 100,> 100,40.6,> 100,> 100,> 100,,> 100
